# Results from paper PMC11314561, “Design and Synthesis of Novel Aminoindazole-pyrrolo[2,3-b]pyridine Inhibitors of IKKα That Selectively Perturb Cellular Non-Canonical NF-κB Signalling” (Molecules, 2024).
# pIC50: −log10 of the molar value.
# Test system: p52/RelB nuclear translocation in PC-3M cells
# Experiment: LTα1β2-stimulated p52/RelB nuclear translocation, Western blotting of crude nuclear extracts
# Format: cell-based
# Details: Homo sapiens, LTα1β2 4 h
# Protocol: Associated with the IKKα-mediated activation of the non-canonical NF-κB pathway is the downstream liberation and the nuclear translocation of p52/RelB-containing NF-κB complexes. The extent of the nuclear translocation of these proteins was also assessed by Western blotting of crude nuclear extracts prepared from PC-3M cells. […] Related to the markers of TNFα-stimulated canonical NF-κB signalling, 6g [SU1349] had no impact on any of TNFα-stimulated IκBα degradation, phosphorylation of p65 (Ser536), or p105 (Ser932) phosphorylation in these cells (Figure 15C).
# For examination of potential effects of compound on non-canonical NF-κB signalling, cells were exposed to vehicle (DMSO; 0.03–0.05% (v/v)) or increasing concentrations of compounds (0.01–30 µM) for 1 h prior to treatment with FCS (10% (v/v); for U2OS cells) or LTα1β2 (20 ng/mL; for PC-3M cells) for 4 h. The status of p-p100 (Ser 866/870) in whole-cell extracts prepared from 12-well plates was assessed by Western blotting, as described in McKenzie et al.. […] Thereafter, p52 and RelB status in crude nuclear extracts normalised for protein amounts were assessed by Western blotting.
# Each figure/panel of Western blotting data represents one of at least three separate experiments. […] Data were normalised to fold expression/inhibition relative to ‘agonist plus vehicle’ treatment and expressed as mean ± s.e.m. […]
smiles,measurement,value
Nc1n[nH]c2ccc(-c3ccnc4[nH]c(-c5ccnc(OCc6ccccc6)c5)cc34)cc12 [Compound 6g [SU1349]],pIC50,6.82
